Assay results taken from patent US7528138B2, “Pyrazolo[1,5-a]pyrimidines useful as inhibitors of protein kinases” (Vertex Pharmaceuticals Incorporated, priority 2004, dated 2009).

Assays:
JAK3 = biological target: T1, JAK3 (Homo sapiens, UniProt P52333); assay: JAK3 Inhibition Assay, 33P incorporation; format: biochemical; conditions: enzyme inhibition data (Ki), Table 11
T1 sequence (P52333 1-1124): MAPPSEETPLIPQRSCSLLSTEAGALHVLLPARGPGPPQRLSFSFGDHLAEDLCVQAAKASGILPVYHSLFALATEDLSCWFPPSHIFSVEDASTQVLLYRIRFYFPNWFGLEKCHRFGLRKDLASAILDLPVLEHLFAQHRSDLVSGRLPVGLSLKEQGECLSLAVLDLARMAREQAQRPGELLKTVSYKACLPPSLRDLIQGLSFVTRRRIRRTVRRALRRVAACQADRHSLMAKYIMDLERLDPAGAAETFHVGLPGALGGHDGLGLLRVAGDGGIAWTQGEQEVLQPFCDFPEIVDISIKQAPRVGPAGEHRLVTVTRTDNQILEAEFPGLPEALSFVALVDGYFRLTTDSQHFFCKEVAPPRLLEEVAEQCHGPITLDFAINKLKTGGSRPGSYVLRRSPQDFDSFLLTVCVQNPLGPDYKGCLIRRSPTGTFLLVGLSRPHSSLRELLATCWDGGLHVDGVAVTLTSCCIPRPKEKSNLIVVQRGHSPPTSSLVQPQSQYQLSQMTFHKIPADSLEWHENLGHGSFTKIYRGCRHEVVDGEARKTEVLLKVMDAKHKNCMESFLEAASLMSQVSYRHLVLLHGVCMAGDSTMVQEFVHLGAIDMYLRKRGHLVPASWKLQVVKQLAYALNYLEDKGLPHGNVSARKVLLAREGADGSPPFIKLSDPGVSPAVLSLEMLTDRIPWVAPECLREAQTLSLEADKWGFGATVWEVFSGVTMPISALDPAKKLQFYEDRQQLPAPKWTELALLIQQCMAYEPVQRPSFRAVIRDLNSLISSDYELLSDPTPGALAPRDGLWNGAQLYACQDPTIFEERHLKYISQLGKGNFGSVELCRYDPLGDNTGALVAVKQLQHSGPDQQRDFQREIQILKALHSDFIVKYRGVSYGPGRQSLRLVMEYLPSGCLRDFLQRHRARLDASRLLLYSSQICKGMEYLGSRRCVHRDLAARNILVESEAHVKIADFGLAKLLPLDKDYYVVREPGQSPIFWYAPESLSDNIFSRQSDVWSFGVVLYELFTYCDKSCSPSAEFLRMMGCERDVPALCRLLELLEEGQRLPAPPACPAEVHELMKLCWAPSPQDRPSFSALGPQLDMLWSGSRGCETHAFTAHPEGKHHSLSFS
How it was run: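 33P incorporation into 1 μM poly(Glu)4Tyr was counted after TCA stop and glass fiber filtration. The 20 min reaction ran at 25 °C with 1 nM JAK3 and 5 μM ATP (200 uCi/μmole). Buffer was 100 mM HEPES pH 7.4, 10 mM MgCl2, 25 mM NaCl, 1 mM DTT, 0.01% BSA.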

Itk = biological target: T2, Itk (Homo sapiens, UniProt Q08881); assay: ITK Inhibition Assay (Radiometric), radioactive-phosphate incorporation; format: biochemical; conditions: enzyme inhibition data (Ki), Table 11; radiometric or UV assay not stated
T2 sequence (Q08881 1-620): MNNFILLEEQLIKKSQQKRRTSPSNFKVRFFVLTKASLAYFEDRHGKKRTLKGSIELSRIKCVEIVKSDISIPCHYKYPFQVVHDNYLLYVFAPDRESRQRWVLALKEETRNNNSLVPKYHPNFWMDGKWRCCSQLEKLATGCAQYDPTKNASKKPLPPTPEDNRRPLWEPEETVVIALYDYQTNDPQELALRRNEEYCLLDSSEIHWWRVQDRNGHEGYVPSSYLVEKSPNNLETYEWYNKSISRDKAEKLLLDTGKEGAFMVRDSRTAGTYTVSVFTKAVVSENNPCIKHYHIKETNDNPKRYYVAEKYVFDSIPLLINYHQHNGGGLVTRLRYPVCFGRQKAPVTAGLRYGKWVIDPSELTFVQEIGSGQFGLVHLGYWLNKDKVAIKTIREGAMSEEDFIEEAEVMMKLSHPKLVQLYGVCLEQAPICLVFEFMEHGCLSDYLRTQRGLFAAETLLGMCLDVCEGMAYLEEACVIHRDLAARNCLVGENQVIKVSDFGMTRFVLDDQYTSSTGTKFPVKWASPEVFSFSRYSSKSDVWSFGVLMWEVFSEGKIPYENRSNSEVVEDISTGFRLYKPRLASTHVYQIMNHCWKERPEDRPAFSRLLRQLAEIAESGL
How it was run: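 Radiometric 33P incorporation into SAM68 peptide (D332-443) with filter capture and scintillation counting; 10 min pre-incubation then 10 min reaction at 25° C. IC50 format: 30 nM Itk, 15 μM ATP, 2 μM peptide, HEPES pH 7.5. Ki(app) format: 50 nM Itk, 7.5 μM ATP, 3 μM peptide, MOPS pH 7.0.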

| Ki (JAK3) | Ki (Itk) | SMILES |
| --- | --- | --- |
| 500 to 5000 nM | 500 to 5000 nM | Cc1cnc2c(-c3cc(NC4CCC4)ncn3)c(N)nn2c1 [Compound V-290] |
| 500 to 5000 nM | < 500 nM | CCN1CCN(C(=O)c2ccc(-c3cnc4c(-c5ccccn5)c(N)nn4c3)nc2)C(O)C1 (centres unmarked) [Compound V-78] |
| 500 to 5000 nM | 500 to 5000 nM | CC(C)N(C)C(=O)c1ccc(-c2cnc3c(-c4ccccn4)c(N)nn3c2)nc1 [Compound V-67] |
| 500 to 5000 nM | < 500 nM | Nc1nn2cc(-c3ccc(C(=O)N4CCC(CCO)CC4)cn3)cnc2c1-c1ccccn1 [Compound V-83] |
| 500 to 5000 nM | 500 to 5000 nM | Cc1cnc2c(-c3cc(NC4CC4)ncn3)c(N)nn2c1 [Compound V-289] |
| > 5000 nM | 500 to 5000 nM | CCOC(=O)c1c(N)nn2cc(-c3ccc(Cl)cc3)cnc12 [Compound V-24] |
| 500 to 5000 nM | < 500 nM | Nc1nn2cc(-c3ccc(C(=O)N4CCC(N)C4)cn3)cnc2c1-c1ccccn1 (centres unmarked) [Compound V-81] |
| 500 to 5000 nM | 500 to 5000 nM | Cc1cnc2c(-c3cc(NC4CCCCC4)ncn3)c(N)nn2c1 [Compound V-291] |
| > 5000 nM | 500 to 5000 nM | Nc1nn2cc(-c3ccc(C(=O)NCCF)cn3)cnc2c1-c1ccccn1 [Compound V-73] |
| 500 to 5000 nM | < 500 nM | CC(C)N1CCN(c2ccc(-c3cnc4c(-c5ccccn5)c(N)nn4c3)cc2)CC1 [Compound V-51] |
| 500 to 5000 nM | < 500 nM | Nc1nn2cc(-c3ccc(C(=O)N4CCCC(CO)C4)cn3)cnc2c1-c1ccccn1 (centres unmarked) [Compound V-71] |
| 500 to 5000 nM | < 500 nM | CCCN(CCO)C(=O)c1ccc(-c2cnc3c(-c4ccccn4)c(N)nn3c2)nc1 [Compound V-92] |
| > 5000 nM | < 500 nM | CN(CCN)C(=O)c1ccc(-c2cnc3c(-c4ccccn4)c(N)nn3c2)nc1 [Compound V-94] |
| 500 to 5000 nM | < 500 nM | Cc1cnc2c(-c3cc(N4CCCCC4)ncn3)c(N)nn2c1 [Compound V-276] |
| 500 to 5000 nM | < 500 nM | CN(C)CCNC(=O)c1ccc(-c2cnc3c(-c4ccccn4)c(N)nn3c2)nc1 [Compound V-65] |
| 500 to 5000 nM | 500 to 5000 nM | Cc1cnc2c(-c3cc(NC4CCN(Cc5ccccc5)C4)ncn3)c(N)nn2c1 (centres unmarked) [Compound V-286] |
| 500 to 5000 nM | 500 to 5000 nM | CSc1cc(-c2c(N)nn3cc(C)cnc23)ncn1 [Compound V-281] |
| 500 to 5000 nM | 500 to 5000 nM | Cc1cnc2c(-c3cc(NCC4CCCO4)ncn3)c(N)nn2c1 (centres unmarked) [Compound V-278] |
| 500 to 5000 nM | 500 to 5000 nM | Cc1cnc2c(-c3cc(NCC4CC4)ncn3)c(N)nn2c1 [Compound V-277] |
| 500 to 5000 nM | < 500 nM | CCN(CCN)C(=O)c1ccc(-c2cnc3c(-c4ccccn4)c(N)nn3c2)nc1 [Compound V-62] |
| > 5000 nM | 500 to 5000 nM | Nc1nn2cc(N3CCOCC3)cnc2c1-c1ccccn1 [Compound V-57] |
| 500 to 5000 nM | 500 to 5000 nM | Cc1cnc2c(-c3cc(N[C@@H](C)CO)ncn3)c(N)nn2c1 [Compound V-295] |
| > 5000 nM | 500 to 5000 nM | CN(C)CCNC(=O)c1cccc(-c2cnc3c(-c4ccccn4)c(N)nn3c2)c1 [Compound V-54] |
| 500 to 5000 nM | < 500 nM | CCOC(=O)N1CCN(C(=O)c2ccc(-c3cnc4c(-c5ccccn5)c(N)nn4c3)nc2)CC1 [Compound V-76] |
| 500 to 5000 nM | < 500 nM | Nc1nn2cc(-c3ccc(C(=O)N4CCSCC4)cn3)cnc2c1-c1ccccn1 [Compound V-87] |

| Ki (JAK3) | Ki (Itk) | SMILES |
| --- | --- | --- |
| 500 to 5000 nM | < 500 nM | Nc1nn2cc(-c3ccc(C(=O)N4CCC[C@@H]4CO)cn3)cnc2c1-c1ccccn1 [Compound V-93] |
| 500 to 5000 nM | < 500 nM | COCCN1CCN(C(=O)c2ccc(-c3cnc4c(-c5ccccn5)c(N)nn4c3)nc2)CC1 [Compound V-68] |
| > 5000 nM | 500 to 5000 nM | CN1CCN(C(=O)c2cccc(-c3cnc4c(-c5ccccn5)c(N)nn4c3)c2)CC1 [Compound V-55] |
| 500 to 5000 nM | < 500 nM | C#CCN(C)C(=O)c1ccc(-c2cnc3c(-c4ccccn4)c(N)nn3c2)nc1 [Compound V-72] |
| > 5000 nM | 500 to 5000 nM | Nc1nn2cc(-c3ccc(C(=O)N4CCC4)cn3)cnc2c1-c1ccccn1 [Compound V-86] |
| 500 to 5000 nM | 500 to 5000 nM | Cc1cnc2c(-c3cc(NC(C)C)ncn3)c(N)nn2c1 [Compound V-273] |
| 500 to 5000 nM | < 500 nM | CCN(CCC#N)C(=O)c1ccc(-c2cnc3c(-c4ccccn4)c(N)nn3c2)nc1 [Compound V-90] |
| 500 to 5000 nM | 500 to 5000 nM | CC[C@H](C)Nc1cc(-c2c(N)nn3cc(C)cnc23)ncn1 [Compound V-294] |
| > 5000 nM | 500 to 5000 nM | COc1ccc(-c2cnc3c(C#N)c(N)nn3c2)cc1 [Compound V-2] |
| > 5000 nM | 500 to 5000 nM | CCN(C(=O)c1c(N)nn2cc(-c3ccncn3)cnc12)C(C)C [Compound V-33] |
| 500 to 5000 nM | < 500 nM | CCCN(CCCN)C(=O)c1ccc(-c2cnc3c(-c4ccccn4)c(N)nn3c2)nc1 [Compound V-85] |
| > 5000 nM | 500 to 5000 nM | Nc1nn2cc(Cl)cnc2c1-c1ccccn1 [Compound V-280] |
| 500 to 5000 nM | < 500 nM | CCN(CCCCN)C(=O)c1ccc(-c2cnc3c(-c4ccccn4)c(N)nn3c2)nc1 [Compound V-74] |
| > 5000 nM | 500 to 5000 nM | COCCN(C)C(=O)c1ccc(-c2cnc3c(-c4ccccn4)c(N)nn3c2)nc1 [Compound V-75] |
| 500 to 5000 nM | < 500 nM | CCN(C)C(=O)c1ccc(-c2cnc3c(-c4ccccn4)c(N)nn3c2)nc1 [Compound V-89] |
| 500 to 5000 nM | 500 to 5000 nM | Cc1cnc2c(-c3cc(NC4CCN(Cc5ccccc5)CC4)ncn3)c(N)nn2c1 [Compound V-285] |
| 500 to 5000 nM | < 500 nM | Nc1nn2cc(-c3ccc(C(=O)N4CCC[C@@H](O)C4)cn3)cnc2c1-c1ccccn1 [Compound V-79] |
| > 5000 nM | 500 to 5000 nM | COc1ccncc1-c1cnc2c(-c3ccccn3)c(N)nn2c1 [Compound V-22] |
| 500 to 5000 nM | < 500 nM | COC(=O)N1CCN(C(=O)c2ccc(-c3cnc4c(-c5ccccn5)c(N)nn4c3)nc2)CC1 [Compound V-64] |
| 500 to 5000 nM | 500 to 5000 nM | Cc1cnc2c(-c3cc(N[C@H](C)CO)ncn3)c(N)nn2c1 [Compound V-293] |
| 500 to 5000 nM | < 500 nM | CCN1CCN(C(=O)c2ccc(-c3cnc4c(-c5ccccn5)c(N)nn4c3)nc2)CC1 [Compound V-63] |
| > 5000 nM | < 500 nM | Nc1nn2cc(-c3ccc(C(=O)N4CCCCC4CCO)cn3)cnc2c1-c1ccccn1 (centres unmarked) [Compound V-82] |
| 500 to 5000 nM | < 500 nM | COc1ccccc1Nc1cc(-c2c(N)nn3cc(C)cnc23)ncn1 [Compound V-274] |
| 500 to 5000 nM | < 500 nM | CN1CCCN(C(=O)c2ccc(-c3cnc4c(-c5ccccn5)c(N)nn4c3)nc2)CC1 [Compound V-70] |
